Reference: publication PMC8225008, “Development of Non-Ethoxypropanoic Acid Type Cryptochrome Inhibitors with Circadian Molecular Clock-Enhancing Activity by Bioisosteric Replacement” (Pharmaceuticals, 2021)

Columns and labels:
[1] = target: T1, hCRY2 (Homo sapiens, UniProt Q49AN0); assay: Surface plasmon resonance, CRY2; assay type: binding; conditions: SPR, His-tagged CRY2, Langmuir 1:1 model
T1 construct: GST; purchased MyBioSource; host or cells: baculovirus expression system
T1 sequence (Q49AN0 1-593): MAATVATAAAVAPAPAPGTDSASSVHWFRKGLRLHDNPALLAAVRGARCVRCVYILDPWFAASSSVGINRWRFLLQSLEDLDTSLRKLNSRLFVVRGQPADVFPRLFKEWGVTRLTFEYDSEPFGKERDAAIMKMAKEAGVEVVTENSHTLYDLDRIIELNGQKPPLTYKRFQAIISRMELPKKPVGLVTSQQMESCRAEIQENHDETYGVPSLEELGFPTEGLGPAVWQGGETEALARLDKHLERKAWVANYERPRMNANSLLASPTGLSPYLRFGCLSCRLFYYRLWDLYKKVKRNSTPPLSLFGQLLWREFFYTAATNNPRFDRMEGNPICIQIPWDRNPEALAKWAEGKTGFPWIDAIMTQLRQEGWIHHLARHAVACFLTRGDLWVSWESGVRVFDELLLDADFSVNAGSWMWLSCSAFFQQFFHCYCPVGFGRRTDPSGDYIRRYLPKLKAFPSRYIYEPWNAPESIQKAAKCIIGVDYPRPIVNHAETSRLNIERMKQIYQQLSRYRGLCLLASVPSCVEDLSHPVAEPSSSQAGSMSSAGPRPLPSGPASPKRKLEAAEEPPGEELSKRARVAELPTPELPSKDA
Protocol: We used a ProteOn XPR36 system (Bio-Rad, Hercules, CA, USA) equipped with a HTE sensor chip (high capacity tris-NTA for histidine-tagged […] capture, Bio-Rad) for surface plasmon resonance analyses. Purified target proteins (6xHis- and GST-tagged hCRY1 and hCRY2) were prepared by a baculovirus expression system (MyBioSource, San Diego, CA, USA). Phosphate buffered saline (PBS) plus 0.005% Tween 20 was used as the running buffer. The 6xHis-hCRY1 and 6xHis-hCRY2 proteins were immobilized onto separate channels of a HTE chip by injecting 210 μL protein sample (2.0 μg/mL) into flow cells (30 μL/min) to allow saturation. Serially diluted compound 2d samples (50–800 μM) were prepared in 4% DMSO in TBS-T buffer. […] Recorded resonance units (RU) were normalized and plotted against chemical concentration. […]
(§1) The EC50 values for luciferase reporter assay were calculated based on a logistic four-parametric equation using the mean values of intrinsic activation (SigmaPlot 10.0; Systat Software Inc., San Jose, CA, USA). The IC50 and t1/2 values for the cytochrome P450 inhibition assay and metabolic stability test were calculated by WinNonlin software (Pharsight, Mountain View, CA, USA). Pharmacokinetic parameters were calculated using non-compartmental analysis (WinNonlin v.8.3; Pharsight, Mountain View, CA, USA). […]

[2] = target: T2, CYP2C9 (Homo sapiens, UniProt P11712); assay: Cytochrome P450 inhibition assay (cocktail method, human liver microsomes), tolbutamide 4-methylhydroxylation; assay type: in vitro ADME
T2 construct: pooled human liver microsomes (HLMs, XTreme 200, XenoTech, Lenexa, KS, USA); tissue XenoTech XTreme 200; host or cells: pooled human liver microsomes
Protocol: (§2) The inhibitory effects of KS15 and compound 5d on the metabolism of five cytochrome P450 (P450) probe substrates were evaluated using previous methods with slight modifications. The following P450 probe substrates were used: phenacetin (100 μM) for CYP1A2, tolbutamide (100 μM) for CYP2C9, omeprazole (20 μM) for CYP2C19, dextromethorphan (5 μM) for CYP2D6, and midazolam (5 μM) for CYP3A. Incubation mixtures containing pooled human liver microsomes (HLMs, XTreme 200, XenoTech, Lenexa, KS, USA), P450 probe substrates, and KS15 or compound 5d (final concentrations: 0, 0.5, 2, 5, 20, and 50 μM) were preincubated for 5 min at 37 °C. […] After centrifugation at 18,000× g (5 min, 4 °C), supernatant aliquots were analyzed by liquid chromatography-tandem mass spectrometry (LC-MS/MS). […]
(§3) All metabolites and IS were separated on a Kinetex C18 column (100 mm × 2.1 mm, 2.6 μm ID., Phenomenex, Torrance, CA, USA) and analyzed using an LC-MS/MS system (LCMS 8060, Shimadzu, Tokyo, Japan) equipped with an electrospray ionization (ESI) interface. […]
as §1, with “The IC50 and t1/2 values for the cytochrome P450 inhibition assay and metabolic stability test were calculated by WinNonlin software (Pharsight, Mountain View, CA, USA).” left out

[3] = target: T3, CYP2D6 (Homo sapiens, UniProt P10635); assay: Cytochrome P450 inhibition assay (cocktail method, human liver microsomes), dextromethorphan O-demethylation; assay type: in vitro ADME
T3 construct: pooled human liver microsomes (HLMs, XTreme 200, XenoTech, Lenexa, KS, USA); tissue XenoTech XTreme 200; host or cells: pooled human liver microsomes
Protocol: as §2, §3
as §1, with “The IC50 and t1/2 values for the cytochrome P450 inhibition assay and metabolic stability test were calculated by WinNonlin software (Pharsight, Mountain View, CA, USA).” left out

T2 sequence (P11712 whole entry): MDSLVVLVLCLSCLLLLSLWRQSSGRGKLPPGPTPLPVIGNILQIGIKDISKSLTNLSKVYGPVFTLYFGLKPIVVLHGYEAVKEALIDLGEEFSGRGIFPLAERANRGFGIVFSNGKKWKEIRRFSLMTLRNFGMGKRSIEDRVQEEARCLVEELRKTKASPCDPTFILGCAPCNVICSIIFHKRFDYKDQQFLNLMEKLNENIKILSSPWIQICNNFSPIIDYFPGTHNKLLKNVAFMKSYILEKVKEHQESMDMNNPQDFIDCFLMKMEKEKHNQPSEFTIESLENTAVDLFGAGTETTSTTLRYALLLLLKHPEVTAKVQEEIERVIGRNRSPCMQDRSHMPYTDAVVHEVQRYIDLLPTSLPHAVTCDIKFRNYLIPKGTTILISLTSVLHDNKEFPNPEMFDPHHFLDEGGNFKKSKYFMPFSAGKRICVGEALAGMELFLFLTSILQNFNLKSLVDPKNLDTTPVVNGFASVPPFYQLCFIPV
T3 sequence (P10635 whole entry): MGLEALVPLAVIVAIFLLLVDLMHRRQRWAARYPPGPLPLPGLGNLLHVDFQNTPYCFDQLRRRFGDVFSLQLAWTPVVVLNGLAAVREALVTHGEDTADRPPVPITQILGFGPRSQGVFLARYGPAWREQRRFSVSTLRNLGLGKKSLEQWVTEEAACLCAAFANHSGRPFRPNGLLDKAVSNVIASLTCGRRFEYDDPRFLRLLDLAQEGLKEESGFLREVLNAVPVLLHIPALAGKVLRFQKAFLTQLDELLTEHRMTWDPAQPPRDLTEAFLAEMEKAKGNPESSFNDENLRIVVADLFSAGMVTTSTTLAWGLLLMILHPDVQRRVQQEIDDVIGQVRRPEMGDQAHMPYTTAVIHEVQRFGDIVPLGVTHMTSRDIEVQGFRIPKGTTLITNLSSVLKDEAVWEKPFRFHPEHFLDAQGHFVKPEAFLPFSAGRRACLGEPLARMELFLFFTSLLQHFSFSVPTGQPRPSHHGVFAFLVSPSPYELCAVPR

Kd [1]	IC50 [2]	IC50 [3]	Compound
380 µM	–	–	CC(=NOCc1ccc([N+](=O)[O-])cc1)c1cccc(OCC(=O)O)c1 [Compound 2d, 2-(3-(1-(((4-nitrobenzyl)oxy)imino)ethyl)phenoxy)acetic acid]
–	> 50 µM	> 50 µM	COC(=O)COc1cccc(C(C)=NOCc2ccc([N+](=O)[O-])cc2)c1 [Compound 5d, Methyl 2-(3-(1-(((4-nitrobenzyl)oxy)imino)ethyl)phenoxy)acetate]
